In PubChem BioAssay (NCI):
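Grown in 96-well plates, cells were treated for 48 hours with each compound at five concentrations. Insufficient inhibition: endpoint recorded as highest concentration tested. TGI is the concentration that stops growth completely.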

Tests used:
Experiment in all cases: inhibition of tumour cell growth, NCI panel, 48 h
CAKI-1 renal = system: CAKI-1 renal
CCRF-CEM leukemia = system: CCRF-CEM leukemia
COLO 205 colon = system: COLO 205 colon
DMS 114 small cell lung = system: DMS 114 small cell lung
EKVX NSCLC = system: EKVX NSCLC
KM12 colon = system: KM12 colon
KM20L2 colon = system: KM20L2 colon
NCI-H226 lung = system: NCI-H226 lung
OVCAR-4 ovarian = system: OVCAR-4 ovarian
UACC-257 melanoma = system: UACC-257 melanoma

Measured: TGI

CCOC(=O)c1s/c(=N\Nc2nc3ccccc3cc2C2OCCO2)n(Cc2ccccc2)c1C
> 100 µM: all assays above

CC(C)N1CC2CC(CN(C(=O)c3ccccc3)C2)C1
> 100 µM: all assays above
